# Reference: US11066396B2 (priority 2016, dated 2021)
# pIC50: −log10 of the molar value.
# Tests used:
# [1] = biological target: HDAC1 (Homo sapiens (Human), UniProt Q13547); details: read-out: HDAC1 IC50
# Experimental: Assay protocol: In brief, compounds were titrated in 100% DMSO via accoustic dispensing directly to the assay plate using the ECHO 550 [Labcyte]. HDAC enzymes at the concentrations indicated above were added in assay buffer to the assay plates containing the compounds using a Combi [Thermo Scientific]. The wells were mixed, and the plates were allowed to pre-incubate at ambient temperature for 3 h. After the 3 h, the appropriate substrate, at the concentrations indicated above, was added to the wells using a Combi. The wells were mixed, and the plates were allowed to incubate at ambient temperature for 1 h. After the 1 h, the appropriate Developer/stop solution was added to the wells using a Combi. The wells were mixed, and the plates were allowed to incubate at ambient temperature for 1 h. […] Data were analyzed using 4P curve fitting with Activity Base [IDBS] software.
# [2] = biological target: HDAC5 (Homo sapiens (Human), UniProt Q9UQL6); details: read-out: HDAC5 IC50
# [3] = biological target: HDAC8 (Homo sapiens (Human), UniProt Q9BY41); details: read-out: HDAC8 IC50
# Sequence of HDAC8 (Q9BY41 whole entry): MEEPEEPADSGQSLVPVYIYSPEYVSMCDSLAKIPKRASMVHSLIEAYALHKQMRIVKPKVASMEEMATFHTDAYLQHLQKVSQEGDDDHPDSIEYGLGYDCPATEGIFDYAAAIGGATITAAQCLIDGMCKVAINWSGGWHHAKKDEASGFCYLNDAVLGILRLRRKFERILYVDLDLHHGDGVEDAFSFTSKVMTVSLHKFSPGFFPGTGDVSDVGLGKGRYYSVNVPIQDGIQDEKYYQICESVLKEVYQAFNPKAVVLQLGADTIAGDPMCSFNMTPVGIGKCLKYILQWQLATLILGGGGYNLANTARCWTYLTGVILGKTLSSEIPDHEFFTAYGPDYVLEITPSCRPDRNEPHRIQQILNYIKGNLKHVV
# Sequence of HDAC5 (Q9UQL6 656-1122): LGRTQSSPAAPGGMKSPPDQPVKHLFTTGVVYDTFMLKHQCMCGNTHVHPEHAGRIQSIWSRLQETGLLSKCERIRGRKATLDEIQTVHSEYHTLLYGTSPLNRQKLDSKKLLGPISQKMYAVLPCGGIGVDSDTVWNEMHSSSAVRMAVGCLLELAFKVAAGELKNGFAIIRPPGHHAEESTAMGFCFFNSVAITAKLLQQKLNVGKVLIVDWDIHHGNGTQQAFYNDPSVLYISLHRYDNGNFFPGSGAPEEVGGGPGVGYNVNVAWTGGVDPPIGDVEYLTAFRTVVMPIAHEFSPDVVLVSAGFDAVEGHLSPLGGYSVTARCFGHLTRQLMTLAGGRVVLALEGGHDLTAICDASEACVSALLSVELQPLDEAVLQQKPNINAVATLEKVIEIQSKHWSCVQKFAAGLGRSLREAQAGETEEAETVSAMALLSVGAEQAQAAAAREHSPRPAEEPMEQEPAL
# Sequence of HDAC1 (Q13547 whole entry): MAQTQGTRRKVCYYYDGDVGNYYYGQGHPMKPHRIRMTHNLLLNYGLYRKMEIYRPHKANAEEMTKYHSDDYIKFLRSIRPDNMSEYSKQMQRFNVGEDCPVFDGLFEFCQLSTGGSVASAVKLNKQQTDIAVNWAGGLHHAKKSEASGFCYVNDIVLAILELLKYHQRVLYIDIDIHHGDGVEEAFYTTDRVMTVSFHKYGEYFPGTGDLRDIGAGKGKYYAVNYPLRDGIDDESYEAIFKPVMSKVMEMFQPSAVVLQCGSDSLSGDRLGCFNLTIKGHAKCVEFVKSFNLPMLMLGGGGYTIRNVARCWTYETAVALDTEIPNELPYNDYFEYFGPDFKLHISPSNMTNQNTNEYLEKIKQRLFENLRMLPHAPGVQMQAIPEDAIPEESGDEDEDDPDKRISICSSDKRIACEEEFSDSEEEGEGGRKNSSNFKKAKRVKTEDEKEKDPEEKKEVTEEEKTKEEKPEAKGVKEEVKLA
Compound,pIC50 [1],pIC50 [2],pIC50 [3]
"CC1(C)CCCCN1C(=O)[C@@H]1CCC(=O)N1c1ccc(-c2noc(C(F)(F)F)n2)c(F)c1 [Example 343, (5S)-5-[(2,2-dimethylpiperidin-1-yl)carbonyl]-1-{3-fluoro-4-[5-(trifluoromethyl)-1,2,4-oxadiazol-3-yl]phenyl}pyrrolidin-2-one]",4.62,5.52,4.60
"O=C(C1CCS(=O)(=O)CC1)N(Cc1ccc(-c2noc(C(F)(F)F)n2)cn1)c1cccc(C(F)(F)F)c1 [Example 456, N-({5-[5-(trifluoromethyl)-1,2,4-oxadiazol-3-yl]pyridin-2-yl}methyl)-N-[3-(trifluoromethyl)phenyl]tetrahydro-2H-thiopyran-4-carboxamide 1,1-dioxide]",6.44,5.57,5.60
"O=C1COc2ccccc2N1Cc1ccc(-c2noc(C(F)(F)F)n2)cn1 [Example 462, 4-({5-[5-(trifluoromethyl)-1,2,4-oxadiazol-3-yl]pyridin-2-yl}methyl)-2H-1,4-benzoxazin-3(4H)-one]",6.82,8.02,5.62
"Cc1nc2ccc(F)cc2n1Cc1ccc(-c2noc(C(F)(F)F)n2)cn1 [Example 465, 6-fluoro-2-methyl-1-({5-[5-(trifluoromethyl)-1,2,4-oxadiazol-3-yl]pyridin-2-yl}methyl)-1H-benzimidazole]",6.14,7.44,5.25
"O=c1[nH]c2ccccc2n(Cc2ccc(-c3noc(C(F)(F)F)n3)cn2)c1=O [Example 469, 1-({5-[5-(trifluoromethyl)-1,2,4-oxadiazol-3-yl]pyridin-2-yl}methyl)-1,4-dihydroquinoxaline-2,3-dione]",7.07,7.66,5.85
"CC(C)(C)OC(=O)[C@@H]1COCC(=O)N1c1ccc(-c2noc(C(F)(F)F)n2)c(F)c1 [Example 471, tert-butyl (3S)-4-{3-fluoro-4-[5-(trifluoromethyl)-1,2,4-oxadiazol-3-yl]phenyl}-5-oxomorpholine-3-carboxylate]",6.06,7.27,5.42
"COCc1cccc(CCOc2cc(-c3noc(C(F)(F)F)n3)ccn2)c1 [Example 476, 2-{2-[3-(methoxymethyl)phenyl]ethoxy}-4-[5-(trifluoromethyl)-1,2,4-oxadiazol-3-yl]pyridine]",5.72,6.11,5.52
"O=C(C1CCS(=O)(=O)CC1)N(Cc1ccc(-c2noc(C(F)(F)F)n2)c(F)c1)c1cccc(C(F)(F)F)c1 [Example 489, N-({3-fluoro-4-[5-(trifluoromethyl)-1,2,4-oxadiazol-3-yl]phenyl}methyl)-1,1-dioxo-N-[3-(trifluoromethyl)phenyl]-llambda~6~-thiane-4-carboxamide]",6.02,6.12,5.16
"O=C(C1CCS(=O)(=O)CC1)N(Cc1ccc(-c2noc(C(F)(F)F)n2)cc1F)c1cccc(C(F)(F)F)c1 [Example 490, N-({2-fluoro-4-[5-(trifluoromethyl)-1,2,4-oxadiazol-3-yl]phenyl}methyl)-1,1-dioxo-N-[3-(trifluoromethyl)phenyl]-llambda~6~-thiane-4-carboxamide]",6.30,6.28,5.47
